Experimental data published in US5227299A, “NADH kinase and a process for producing the same” (Noda Institute for Scientific Research, priority 1991, dated 1993).
One block for each compound: values may come before it.

Legend:
[1] = tested on: NADH kinase (the present enzyme); assay: Inhibition, activation and stabilization of the present enzyme; format: biochemical, Pichia membranaefaciens
[2] = tested on: NADH kinase (the present enzyme); assay: Substrate specificity of the present enzyme (NADH vs NAD+); format: biochemical, Pichia membranaefaciens; settings: for Specificity (relative activity, NADH = 100): Table 3, present enzyme; for Relative activity (%): substrate NADH or NAD+, ATP, pH 8.5, 30° C., 20 minutes, percentage based on NADH
Method: The substrate specificity of the present enzyme was examined under the following reaction conditions. […]
To 0.9 ml of each of the above substrate solutions containing NADH or NAD^+ was added 0.1 ml of 23 U/ml of the present enzyme, and the reaction was carried out at 30° C. for 20 minutes. Then, the reaction was terminated by heat treatment at 100° C. for 2 minutes, and the denatured protein was removed, after which the amount of NADPH or NADP^+ produced by the reaction of the corresponding substrate was measured as follows. As a control solution, there was used a mixture of each substrate solution and the present enzyme in which the reaction had been terminated immediately after mixing them.
With 1 ml of each of the reaction solutions obtained in the above was mixed 1 ml of a color-producing solution consisting of 10 mM G-6-P, 50 mM HEPPS buffer (pH 8.0), 10 mM magnesium chloride, 0.1% bovine serum albumin, 2.5 IU/ml G-6-P dehydrogenase (NADP^+ -dependent), 5 IU/ml diaphorase and 250 μM 2,6-dichlorophenolindophenol. The resulting mixture was immediately introduced into a constant-temperature cuvette of STASAR III spectrophotometer of Gilford and subjected to reaction at 30° C. Simultaneously with the reaction, the change of absorbance at 600 nm was measured with the lapse of time, and the difference (ΔOD600 nm /min) between absorbance values 1 minute and 2 minutes after the initiation of the coloration reaction was taken as a measured value. As to relative activity (%), a measured value (ΔOD600 nm /min) obtained by using NAD^+ as a substrate was shown as a percentage based on a measured value (ΔOD600 nm /min) obtained by using NADH as a substrate.

NADH kinase B = settings: Table 3, NADH kinase B; cited from earlier work
NADH kinase A = settings: Table 3, NADH kinase A; cited from earlier work

SMILES: CCCCCCCCCCCCOS(=O)(=O)[O-].[Na+] [SDS, sodium lauryl sulfate, reference compound]
- Inhibition of the present enzyme [1]: strongly inhibited

SMILES: NC(=O)c1ccc[n+]([C@@H]2O[C@H](COP(=O)([O-])OP(=O)(O)OC[C@H]3O[C@@H](n4cnc5c(N)ncnc54)[C@H](O)[C@@H]3O)[C@@H](O)[C@H]2O)c1 [NAD^+]
- Action of the present enzyme on the substrate [2]: hardly acts
- Specificity (relative activity, NADH = 100) [2]: 0.9
- Relative activity (%) [2]: 0.9%
- Specificity (relative activity, NADH = 100) (NADH kinase B): 1.6
- Specificity (relative activity, NADH = 100) (NADH kinase A): 1.7

SMILES: [Cd+2] [Cd^2+]
- Inhibition of the present enzyme [1]: strongly inhibited

- Stabilization of the present enzyme [1]: stabilized
SMILES: [Mg+2] [Mg^2+]

SMILES: N.N.O=S(=O)(O)O [ammonium sulfate]
- Stabilization of the present enzyme [1]: stabilized

- Activation of the present enzyme [1]: activated
SMILES: CC(=O)O [sodium acetate]

SMILES: O=C(O)c1cc[c]([Hg][Cl])cc1 [p-CMB, p-chloromercuribenzoic acid, reference compound]
- Inhibition of the present enzyme [1]: strongly inhibited

- Inhibition of the present enzyme [1]: strongly inhibited
SMILES: [Cu+2] [Cu^2+]

SMILES: [Pb+2] [Pb^2+]
- Inhibition of the present enzyme [1]: strongly inhibited

SMILES: [Hg+2] [Hg^2+]
- Inhibition of the present enzyme [1]: strongly inhibited

SMILES: NC(=O)C1=CN([C@@H]2O[C@H](COP(=O)(O)OP(=O)(O)OC[C@H]3O[C@@H](n4cnc5c(N)ncnc54)[C@H](O)[C@@H]3O)[C@@H](O)[C@H]2O)C=CC1 [NADH]
- Action of the present enzyme on the substrate [2]: very specific
- Specificity (relative activity, NADH = 100) [2]: 100
- Relative activity (%) [2]: 100%
- Specificity (relative activity, NADH = 100) (NADH kinase B): 100
- Specificity (relative activity, NADH = 100) (NADH kinase A): 100

- Stabilization of the present enzyme [1]: stabilized
SMILES: [Mn+2] [Mn^2+]

- Stabilization of the present enzyme [1]: stabilized
SMILES: OC[C@H]1O[C@@](CO)(O[C@H]2O[C@H](CO)[C@@H](O)[C@H](O)[C@H]2O)[C@@H](O)[C@@H]1O [saccharose]

- Inhibition of the present enzyme [1]: strongly inhibited
SMILES: [Zn+2] [Zn^2+]
